Experimental data as given in patent US20130011479A1, “DOUBLE-LAYER PHARMACEUTICAL FORMULATIONS CONTAINING OPIOID AGONISTS AND ANTAGONISTS” (L. MOLTENI & C. DEI FRATELLI ALITTI SOCIETA' DI ESERCIZIO …, priority 2010, published 2013).

Columns and labels:
[1] = Intrathecal screening of patients treated with opioids: adverse events / side-effects monitored at several time points; assay type: in vivo; design: key to vertigo / vomiting / pruritus / nausea / numbness / side-effects (grade printed beside morphine) / drowsiness / constipation / loss of appetite / urinary retention / sweating: (0) = none; (1) = mild; (2) = moderate; (3) = intense; (4) = severe
Protocol: (§1) A dose of opioids was administered with or without naltrexone and the adverse events or side-effects and anti-nociceptive effects were monitored at several time points.
(§2) In particular, patients with chronic (non-oncological) spinal pain and oncological patients in the non-terminal phase with evidence of side effects after minimum doses of opioids were monitored.

[2] = Intrathecal screening of patients treated with opioids: anti-nociceptive effects (Efficacy) monitored at several time points; assay type: in vivo
Protocol: Patients being treated with opioids underwent intrathecal screening, in which the evidence of side effects is extremely significant.
as §1, §2

[3] = Algoneurodystrophy, 2 h, without naltrexone
[4] = Back pain, 1 h, without naltrexone
[5] = Back pain, 2 h, without naltrexone
[6] = Back pain, 4 h, without naltrexone
[7] = Back pain, 24 h, without naltrexone
[8] = Cancer of the pancreas, without naltrexone
[9] = Diabetes mellitus type II, without naltrexone
[10] = Lumbago, 4 h, without naltrexone
[11] = Lumbago, 6 h, without naltrexone
[12] = Lumbago, 8 h, without naltrexone
[13] = Lumboischialgia in diabetic patients (VAS 6-7), without naltrexone
[14] = Lumboischialgia, without naltrexone
[15] = Lumbosacral spondylitis without myelopathy, 2 h-4 h, without naltrexone
[16] = Multiple sclerosis, without naltrexone
[17] = Nonspecific coccyx disorders, 6 h, without naltrexone
[18] = Persistent pain syndrome, without naltrexone
[19] = Right lumboischialgia, without naltrexone
[20] = Secondary bone and marrow malignancies (patient at r66), without naltrexone
[21] = Secondary bone and marrow malignancies (patient at r76), without naltrexone
[22] = Secondary malignancies of bone and marrow, without naltrexone
[23] = Stenosis of the lumbar spinal canal, without naltrexone
[24] = Persistent pain syndrome, with naltrexone
[25] = Right lumboischialgia, with naltrexone
[26] = Right lumboischialgia, with naltrexone, first mention in the cell
[27] = Right lumboischialgia, with naltrexone, second mention in the cell
[28] = Secondary bone and marrow malignancies (patient at r66), with naltrexone
[29] = Spinal pain, 4 h, with naltrexone
[30] = Spinal pain, 6 h, with naltrexone

What does the source list for CN1CC[C@]23c4c5ccc(O)c4O[C@H]2[C@@H](O)C=C[C@H]3[C@H]1C5 [morphine]?
pruritus ([1]; Algoneurodystrophy, 6-8 h, without naltrexone): 6-8 h: pruritus (3), urinary; pruritus ([1]; Algoneurodystrophy, 1 h, without naltrexone): 1 h: pruritus (3); pruritus [1, 3]: 2 h: pruritus (3); vertigo ([1]; Back pain, 30 min, without naltrexone): 30 min: vertigo (1); nausea [1, 4]: 1 h: vertigo (1), nausea (1); vertigo [1, 4]: 1 h: vertigo (1), nausea (1); vertigo [1, 5]: 2 h: vertigo (2), vomiting (2); vomiting [1, 5]: 2 h: vertigo (2), vomiting (2); nausea [1, 6]: 3; vertigo [1, 6]: 2; vomiting [1, 6]: vomiting (2); pruritus ([1]; Back pain, 8 h, without naltrexone): 8 h: pruritus (2); nausea [1, 7]: 24 h: nausea (2), vertigo (2); vertigo [1, 7]: 24 h: nausea (2), vertigo (2); constipation [1, 8]: constipation; nausea [1, 8]: 3; nausea [1, 9]: 3; pruritus [1, 9]: 4; drowsiness ([1]; Lumbago, 1 h, without naltrexone): 1 h: drowsiness (1); nausea [1, 10]: 4 h: nausea (2), vomiting (2); vomiting [1, 10]: 4 h: nausea (2), vomiting (2); nausea [1, 11]: 3; pruritus [1, 11]: 6 h: pruritus (3), urinary reten-; vomiting [1, 11]: 2; nausea [1, 12]: 3; pruritus [1, 12]: pruritus (3), urinary retention (3); vomiting [1, 12]: 2; constipation [1, 13]: constipation; drowsiness [1, 13]: drowsiness; nausea [1, 13]: nausea; oedema [1, 13]: moderate; pruritus [1, 13]: pruritus; nausea [1, 14]: nausea (2),; pruritus [1, 14]: 2; sweating [1, 14]: sweating (2), vertigo (2),; vertigo [1, 14]: sweating (2), vertigo (2),; vomiting [1, 14]: 3; nausea [1, 15]: nausea; vomiting [1, 15]: vomiting; vomiting ([1]; Lumbosacral spondylitis without myelopathy, 6 h-8 h, without naltrexone): 6 h-8 h: vomiting; constipation [1, 16]: constipation; loss of appetite [1, 16]: loss of appetite; nausea [1, 16]: nausea; vertigo [1, 16]: vertigo; vomiting ([1]; Nonspecific coccyx disorders, 4 h, without naltrexone): 4 h: recurrent vomiting; nausea [1, 17]: 6 h: vomiting (3), nausea (3); vomiting [1, 17]: 6 h: vomiting (3), nausea (3); asthenia ([1]; Nonspecific coccyx disorders, 8 h, without naltrexone): 8 h: asthenia; side-effects (grade printed beside morphine) ([1]; Nonspecific coccyx disorders, time not given, without naltrexone): morphine (0); nausea [1, 18]: nausea; vertigo [1, 18]: vertigo; vomiting [1, 18]: 4; nausea [1, 19]: 2; pruritus [1, 19]: 4; vomiting [1, 19]: ing (2), urinary retention (2); constipation [1, 20]: constipation (3), drowsiness (3),; drowsiness [1, 20]: constipation (3), drowsiness (3),; constipation [1, 21]: tion (1); loss of appetite [1, 21]: nausea (4), loss of appetite (4),; nausea [1, 21]: nausea (4), loss of appetite (4),; vertigo [1, 21]: 4; vomiting [1, 21]: vomiting; constipation [1, 22]: constipation; pruritus [1, 22]: pruritus (3); headache [1, 23]: headache; nausea [1, 23]: 4; pruritus [1, 23]: 1; sweating [1, 23]: sweating; vomiting [1, 23]: vomiting; Efficacy [2, 3]: 2 h: 30-40%; Efficacy ([2]; Algoneurodystrophy, 8 h, without naltrexone): 8 h: 80%; Efficacy ([2]; Algoneurodystrophy, 14 h, without naltrexone): 14 h: 70%; Efficacy ([2]; Lumbosacral spondylitis without myelopathy, 2 h-24 h, without naltrexone): 2 h-24 h: 80%; Efficacy ([2]; Nonspecific coccyx disorders, without naltrexone): Efficacy <30%; Efficacy [2, 21]: Efficacy: 100%

Which results are given for O=C1CC[C@@]2(O)[C@H]3Cc4ccc(O)c5c4[C@@]2(CCN3CC2CC2)[C@H]1O5 [naltrexone]?
chest pain ([1]; Back pain, h 17.30, with naltrexone): chest pain; tachycardia ([1]; Back pain, h 18.30, with naltrexone): h 18.30: tachycardia; benefit ([1]; Diabetes mellitus type II, with naltrexone): benefit 100%; drowsiness ([1]; Lumbago, 1 h, with naltrexone): 1 h: drowsiness (1); pruritus ([1]; Lumbago, 2 h, with naltrexone): 2 h: pruritus (2); drowsiness ([1]; Lumbago, 4 h, with naltrexone): 4 h: drowsiness (2), pruritus (2); pruritus ([1]; Lumbago, 4 h, with naltrexone): 4 h: drowsiness (2), pruritus (2); drowsiness ([1]; Lumbago, 6 h, with naltrexone): 1; pruritus ([1]; Lumbago, 6 h, with naltrexone): 2; constipation [1, 24]: constipation; drowsiness [1, 24]: drowsiness; nausea [1, 24]: nausea; sweating [1, 24]: sweating; vertigo [1, 24]: vertigo; vomiting [1, 24]: vomiting; side-effects ([1]; Persistent spinal pain syndrome of uncertain aetiology, with naltrexone): none; nausea [1, 25]: 2; vomiting [1, 25]: vomiting (2), urinary; pruritus [1, 26]: 4; urinary retention [1, 26]: 2; pruritus [1, 27]: 1; urinary retention [1, 27]: urinary retention (1); constipation [1, 28]: constipation (3), drowsiness; drowsiness [1, 28]: 3; urinary retention [1, 28]: short-lived; pruritus improved by ([1]; Secondary malignancies of bone and marrow, with naltrexone): 90%; numbness [1, 29]: 4 h: pruritus (1), numbness (1); pruritus [1, 29]: 4 h: pruritus (1), numbness (1); nausea [1, 30]: nausea (1); numbness [1, 30]: 6 h: pruritus (1), numbness (1),; pruritus [1, 30]: 6 h: pruritus (1), numbness (1),; nausea ([1]; Spinal pain, 8 h, with naltrexone): 8 h: nausea (1); nausea ([1]; Stenosis of the lumbar spinal canal, with naltrexone): nausea (1); Efficacy ([2]; Lumbago, 1 h, with naltrexone): 1 h: 30-50%; Efficacy ([2]; Lumbago, 4 h-8 h, with naltrexone): 4 h-8 h: >50%; Efficacy ([2]; Spinal pain, 1 h-8 h, at rest, with naltrexone): 1 h-8 h: at rest 100%, under; Efficacy ([2]; Spinal pain, 1 h-8 h, under strain, with naltrexone): strain 70%
